One test relates to SF268/mock cells. Kind of test: FAS inhibitor sensitivity of control cells, surviving cells counted by trypan blue exclusion. Format: cell-based, human. The settings on record: 15 μg/ml, treated for 24 hours.
In another test the test system is SF268/ACS5 cells. Nature of the test: FAS inhibitor sensitivity of cells with stable high ACS5 expression, surviving cells counted by trypan blue exclusion. The settings on record: 15 μg/ml, treated for 24 hours. Format: cell-based, human.
Test [1] has as its system lung cancer cell strain NCI-H23. Kind of test: Combined effect of ACS inhibitor and FAS inhibitors, cell survival rate by the Sulforhodamine B method. Type of test: cell-based. The settings on record: 3 days, n=3, 100% = without drug treatment.

The values below come from patent publication US20090202569A1, “Prophylactic/Therapeutic Agent for Cancer” (priority 2006, published 2009).

The structures appear in SMILES notation.

Consider `C/C=C/C/C=C/CCC(=O)[C@H]1O[C@H]1C(N)=O` [Cerulenin, 2R,3S,E,E)-2,3-epoxy-4-oxo-7,10-dodecadienamide], for which the growth suppression effect result in the test with SF268/mock cells is recorded as “clear growth suppression effect”; with SF268/ACS5 cells, “no growth suppression effect”. In addition, in test [1] (NCI-H23, 2 μM FAS inhibitor alone), the cell survival rate is reported as 70.2±7.9%.

As to `CCCC=CCC=CC=CC=NNN=O` [Triacsin C, 2,4,7-undecatrienal nitrosohydrazone], the cell survival rate in test [1] (NCI-H23, 0.3 μM Triacsin C alone) is reported as 56.3±0.5%.
